EP3263567A1, “CARBOXAMIDE-SUBSTITUTED PYRAZOLES AND TRI(HETERO)ARYL-PYRAZOLES FOR USE IN METHODS OF TREATING AND / OR PREVENTING CARDIOVASCULAR DISEASES AND / OR COMORBIDITIES THEREOF” (AiCuris Anti-infective Cures GmbH, priority 2016, dated 2018)

Columns and labels:
Cav1.2 = biological target: T1, Cav1.2 (Homo sapiens, UniProt Q13936); test: Whole-cell patch-clamp, Cav1.2 currents in stably transfected CHO cells; type: cell-based; settings: summary statement
T1 construct: expressed in transfected cells; host or cells: CHO (ATCC CCL-61), stably transfected; selection with Hygromycin, Geneticin and Zeocin
T1 sequence (Q13936 whole entry): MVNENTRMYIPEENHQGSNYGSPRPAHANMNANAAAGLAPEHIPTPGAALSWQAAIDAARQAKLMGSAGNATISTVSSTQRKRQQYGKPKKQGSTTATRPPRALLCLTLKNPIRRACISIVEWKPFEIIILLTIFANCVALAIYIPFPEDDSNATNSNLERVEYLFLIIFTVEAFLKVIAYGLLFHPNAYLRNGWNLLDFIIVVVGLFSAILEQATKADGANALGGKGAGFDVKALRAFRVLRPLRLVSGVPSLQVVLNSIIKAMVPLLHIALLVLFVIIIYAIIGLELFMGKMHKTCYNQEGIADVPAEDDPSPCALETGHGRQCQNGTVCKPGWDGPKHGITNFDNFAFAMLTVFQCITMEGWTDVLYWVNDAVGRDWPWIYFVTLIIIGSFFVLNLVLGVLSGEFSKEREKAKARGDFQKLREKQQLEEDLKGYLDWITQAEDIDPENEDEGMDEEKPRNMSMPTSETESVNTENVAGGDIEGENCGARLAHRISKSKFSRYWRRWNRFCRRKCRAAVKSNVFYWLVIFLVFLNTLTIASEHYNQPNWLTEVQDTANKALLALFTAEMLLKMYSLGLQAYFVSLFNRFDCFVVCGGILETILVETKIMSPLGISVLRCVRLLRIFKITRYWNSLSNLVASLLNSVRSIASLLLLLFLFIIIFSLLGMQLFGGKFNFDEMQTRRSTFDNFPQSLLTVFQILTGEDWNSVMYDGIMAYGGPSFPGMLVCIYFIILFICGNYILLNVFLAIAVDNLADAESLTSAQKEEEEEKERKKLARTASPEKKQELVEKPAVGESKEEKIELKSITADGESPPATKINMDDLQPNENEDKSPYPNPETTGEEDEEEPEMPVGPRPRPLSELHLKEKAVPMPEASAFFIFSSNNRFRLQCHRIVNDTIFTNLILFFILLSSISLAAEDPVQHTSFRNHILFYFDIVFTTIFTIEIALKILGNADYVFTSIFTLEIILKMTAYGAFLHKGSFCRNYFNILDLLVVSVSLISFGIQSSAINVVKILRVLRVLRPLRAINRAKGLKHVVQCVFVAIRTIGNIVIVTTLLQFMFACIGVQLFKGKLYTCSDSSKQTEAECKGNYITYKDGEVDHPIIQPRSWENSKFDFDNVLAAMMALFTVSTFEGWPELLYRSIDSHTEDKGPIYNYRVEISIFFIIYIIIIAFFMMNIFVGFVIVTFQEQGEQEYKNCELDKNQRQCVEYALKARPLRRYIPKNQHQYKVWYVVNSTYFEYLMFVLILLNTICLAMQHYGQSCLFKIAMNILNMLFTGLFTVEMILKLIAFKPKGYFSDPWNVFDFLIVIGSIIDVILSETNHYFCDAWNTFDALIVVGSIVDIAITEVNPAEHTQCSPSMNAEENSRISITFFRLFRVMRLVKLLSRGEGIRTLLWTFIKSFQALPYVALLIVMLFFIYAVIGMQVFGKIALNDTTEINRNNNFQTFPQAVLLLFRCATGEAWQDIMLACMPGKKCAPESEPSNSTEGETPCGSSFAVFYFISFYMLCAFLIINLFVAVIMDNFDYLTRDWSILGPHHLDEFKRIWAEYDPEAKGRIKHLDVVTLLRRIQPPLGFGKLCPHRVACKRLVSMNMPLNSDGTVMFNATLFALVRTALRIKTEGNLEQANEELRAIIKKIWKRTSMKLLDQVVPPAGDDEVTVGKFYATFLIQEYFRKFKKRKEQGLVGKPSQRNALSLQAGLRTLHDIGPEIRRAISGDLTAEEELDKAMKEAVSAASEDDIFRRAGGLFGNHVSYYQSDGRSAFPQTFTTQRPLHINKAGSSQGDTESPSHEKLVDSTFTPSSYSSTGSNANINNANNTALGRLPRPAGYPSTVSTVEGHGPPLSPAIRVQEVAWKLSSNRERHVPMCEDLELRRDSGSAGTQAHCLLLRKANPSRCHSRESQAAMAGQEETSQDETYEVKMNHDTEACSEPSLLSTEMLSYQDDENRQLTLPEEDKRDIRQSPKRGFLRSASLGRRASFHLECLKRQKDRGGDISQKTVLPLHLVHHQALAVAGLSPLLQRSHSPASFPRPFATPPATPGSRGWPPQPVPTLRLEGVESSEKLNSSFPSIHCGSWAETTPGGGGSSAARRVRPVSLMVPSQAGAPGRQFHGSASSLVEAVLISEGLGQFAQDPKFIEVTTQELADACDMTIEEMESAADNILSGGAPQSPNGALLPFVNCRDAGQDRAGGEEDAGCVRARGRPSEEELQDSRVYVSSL
T1 sequence (Q08289 whole entry partner): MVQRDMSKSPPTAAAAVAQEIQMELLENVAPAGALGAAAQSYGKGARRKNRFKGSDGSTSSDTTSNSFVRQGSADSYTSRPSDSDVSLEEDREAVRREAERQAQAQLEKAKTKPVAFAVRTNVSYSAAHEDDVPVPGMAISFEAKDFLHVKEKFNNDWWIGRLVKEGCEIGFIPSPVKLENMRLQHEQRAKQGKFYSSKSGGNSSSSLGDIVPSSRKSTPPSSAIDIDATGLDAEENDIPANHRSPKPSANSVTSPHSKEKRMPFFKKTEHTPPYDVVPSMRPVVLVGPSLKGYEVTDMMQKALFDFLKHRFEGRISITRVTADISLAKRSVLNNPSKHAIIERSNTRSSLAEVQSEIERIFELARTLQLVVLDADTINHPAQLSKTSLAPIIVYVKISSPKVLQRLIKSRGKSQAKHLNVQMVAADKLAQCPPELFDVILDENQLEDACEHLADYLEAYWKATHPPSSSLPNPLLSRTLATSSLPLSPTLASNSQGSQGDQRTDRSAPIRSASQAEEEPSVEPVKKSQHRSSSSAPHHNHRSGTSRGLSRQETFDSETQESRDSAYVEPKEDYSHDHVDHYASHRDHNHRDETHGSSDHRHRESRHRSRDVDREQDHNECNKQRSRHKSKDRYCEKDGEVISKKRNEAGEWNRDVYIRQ
T1 sequence (P54289 25-956 partner limits assumed): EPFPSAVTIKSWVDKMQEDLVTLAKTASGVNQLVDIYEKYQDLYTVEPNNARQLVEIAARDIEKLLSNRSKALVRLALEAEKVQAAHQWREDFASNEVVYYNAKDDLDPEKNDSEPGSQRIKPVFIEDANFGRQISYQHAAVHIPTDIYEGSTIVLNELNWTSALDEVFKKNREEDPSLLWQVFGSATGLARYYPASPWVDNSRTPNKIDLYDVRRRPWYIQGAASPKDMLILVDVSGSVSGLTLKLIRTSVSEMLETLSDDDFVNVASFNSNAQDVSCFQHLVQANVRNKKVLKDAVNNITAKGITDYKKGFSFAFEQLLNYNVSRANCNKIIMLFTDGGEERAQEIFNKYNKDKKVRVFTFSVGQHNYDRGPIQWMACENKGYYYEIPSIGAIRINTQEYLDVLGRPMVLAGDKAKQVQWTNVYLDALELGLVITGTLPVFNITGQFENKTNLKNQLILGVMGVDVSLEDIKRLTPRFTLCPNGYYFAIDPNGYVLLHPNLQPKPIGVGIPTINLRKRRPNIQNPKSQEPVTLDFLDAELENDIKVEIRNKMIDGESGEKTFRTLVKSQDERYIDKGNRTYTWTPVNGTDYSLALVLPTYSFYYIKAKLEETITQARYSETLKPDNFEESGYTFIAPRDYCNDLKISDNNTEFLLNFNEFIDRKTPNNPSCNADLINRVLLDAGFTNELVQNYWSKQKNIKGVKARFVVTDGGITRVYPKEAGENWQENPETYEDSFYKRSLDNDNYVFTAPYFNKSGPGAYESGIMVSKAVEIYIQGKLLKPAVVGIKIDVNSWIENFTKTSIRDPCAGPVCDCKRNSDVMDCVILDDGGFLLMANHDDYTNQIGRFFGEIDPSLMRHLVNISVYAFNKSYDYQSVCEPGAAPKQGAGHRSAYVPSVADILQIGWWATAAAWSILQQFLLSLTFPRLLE
T1 sequence (P54289 957-1103 partner limits assumed): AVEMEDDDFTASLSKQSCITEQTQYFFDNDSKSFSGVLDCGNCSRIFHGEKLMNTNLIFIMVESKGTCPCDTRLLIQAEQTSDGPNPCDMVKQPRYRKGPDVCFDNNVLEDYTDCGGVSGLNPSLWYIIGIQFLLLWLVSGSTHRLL
Description: (§1) [drawing 92] i.e. 4-[5-[3-Chloro-5-(trifluoromethoxy) phenyl]-1-(pyridin-3-yl)-1H-pyrazol-3-yl]-5,6-dihydro-7H-pyrrolo[3,4-d]pyrimidin-7-one, was tested for its effects on human Nav1.5, Cav1.2, Kv1.5, and HCN4 currents recorded from stably transfected CHO cells. The effect of four concentrations of this compound on these currents was investigated.
The whole-cell patch-clamp technique was used to investigate the effect of Compound A on the currents of Nav1.5, Kv1.5, Cav1.2 and HCN4 channels, expressed in CHO cells (ATCC, CCL-61). Compound A was tested at concentrations of 200 nM, 600 nM, 2000 nM and 6000 nM. […]
(§2) The 35 mm culture dishes upon which cells were seeded at a density allowing single cells to be recorded were placed on the dish holder of the microscope and continuously perfused (at approximately 1 mL/min) with the bath solution described in section 4.7. […]
(§3) As soon as a stable seal could be established outward tail currents were measured upon pulses described in the Table below: […]
Values in Ampere (A) of the peak amplitudes of outward tail currents were generated for each voltage step. […] The recorded current amplitudes at the steady state level of current inhibition were compared to those from control conditions measured in the pre-treatment phase of the same cell. The amount of current block was calculated as percentage of control. […]

in vivo = settings: both, Beagle, dog, po, 30 mg/kg
Description: A single oral dose of 30 or 100 mg/kg was applied to dogs. Pharmacokinetic parameters were assessed and compared.
Male and female Beagle dogs.
Plasma concentrations were obtained by LC-MS/MS measurements.

HCN4 = biological target: T2, HCN4 (Homo sapiens, UniProt Q9Y3Q4); test: Whole-cell patch-clamp, HCN4 currents in stably transfected CHO cells; type: cell-based; set-up: expressed in transfected cells; host or cells: CHO (ATCC CCL-61), stably transfected; selection with Hygromycin and Geneticin
T2 sequence (Q9Y3Q4 1-1203): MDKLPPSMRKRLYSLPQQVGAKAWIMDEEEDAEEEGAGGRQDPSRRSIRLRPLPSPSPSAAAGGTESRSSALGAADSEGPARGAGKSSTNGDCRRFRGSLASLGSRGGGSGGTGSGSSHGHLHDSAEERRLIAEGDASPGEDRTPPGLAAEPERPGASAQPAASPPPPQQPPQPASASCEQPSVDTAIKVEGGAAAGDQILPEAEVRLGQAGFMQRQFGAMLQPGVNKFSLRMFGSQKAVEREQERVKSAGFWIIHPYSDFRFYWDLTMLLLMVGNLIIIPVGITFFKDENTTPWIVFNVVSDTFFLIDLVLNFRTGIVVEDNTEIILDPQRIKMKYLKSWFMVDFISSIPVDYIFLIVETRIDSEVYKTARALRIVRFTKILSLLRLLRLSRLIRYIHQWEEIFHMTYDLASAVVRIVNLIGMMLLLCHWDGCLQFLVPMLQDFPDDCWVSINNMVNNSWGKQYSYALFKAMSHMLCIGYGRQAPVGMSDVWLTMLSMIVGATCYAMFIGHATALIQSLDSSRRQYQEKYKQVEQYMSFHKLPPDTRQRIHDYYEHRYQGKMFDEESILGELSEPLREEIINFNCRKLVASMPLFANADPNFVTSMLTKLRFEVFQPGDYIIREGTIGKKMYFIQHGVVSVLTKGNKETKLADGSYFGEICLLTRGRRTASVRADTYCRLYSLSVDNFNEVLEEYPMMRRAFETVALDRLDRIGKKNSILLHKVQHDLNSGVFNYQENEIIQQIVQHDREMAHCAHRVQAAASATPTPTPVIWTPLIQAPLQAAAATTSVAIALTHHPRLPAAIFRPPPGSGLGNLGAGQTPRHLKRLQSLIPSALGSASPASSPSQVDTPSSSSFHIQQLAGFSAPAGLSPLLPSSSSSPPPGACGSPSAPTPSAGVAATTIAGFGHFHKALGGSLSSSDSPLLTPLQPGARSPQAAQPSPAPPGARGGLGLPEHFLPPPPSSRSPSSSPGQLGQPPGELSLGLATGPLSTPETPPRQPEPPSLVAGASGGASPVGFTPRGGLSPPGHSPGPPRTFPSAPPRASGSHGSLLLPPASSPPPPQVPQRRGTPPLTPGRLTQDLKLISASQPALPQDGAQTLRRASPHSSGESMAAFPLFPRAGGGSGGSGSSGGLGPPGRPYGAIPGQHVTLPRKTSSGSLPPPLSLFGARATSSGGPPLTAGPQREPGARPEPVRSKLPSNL
Description: as §1
The whole-cell patch-clamp technique was used to investigate the effect of Compound A on the currents of Nav1.5, Kv1.5, Cav1.2 and HCN4 channels, expressed in CHO cells (ATCC, CCL-61). Compound A was tested at concentrations of 200 nM, 600 nM, 2000 nM and 6000 nM. For all ion channels 0.1% DMSO was used as vehicle and ZD7288 as suitable blockers were applied to assure accuracy of the method. The selection antibiotics can be dervied from the Table below:
Concentrations of 200 nM, 600 nM, 2000 nM and 6000 nM of Compound A were tested. […]
as §2, §3
Values in Ampere (A) of the peak amplitudes of outward tail currents were generated for each voltage step. […] The recorded current amplitudes at the steady state level of current inhibition were compared to those from control conditions measured in the pre-treatment phase of the same cell. The amount of current block was calculated as percentage of control. To determine whether the observed current inhibition was due to Compound A-interaction with the respective ion channel or due to current rundown, these residual currents were compared to those measured in vehicle treated cells. Data from at least two individual experiments were collected and the corresponding mean values and standard deviations were calculated. […]

O=C1NCc2c1ncnc2-c1cc(-c2cc(Cl)cc(OC(F)(F)F)c2)n(-c2cccnc2)n1 [Compound A, 4-[5-[3-Chloro-5-(trifluoromethoxy)phenyl]-1-(pyridin-3-yl)-1H-pyrazol-3-yl]-5,6-dihydro-7H-pyrrolo[3,4-d]pyrimidin-7-one]
interaction with ion channels of Cav (Cav1.2): do not interact with other ion channels of Nav, Kav, and Cav substantially | AUC(0-inf) (in vivo): 297 µg·h/mL | reduction of the current amplitude (HCN4) (HCN4; at ≤ 6 µM): more than 30% | Hill coefficient (HCN4) (HCN4; stably transfected CHO cells): 1.15 | IC50 (HCN4; stably transfected CHO cells, 200, 600, 2000, 6000 nM tested): 0.879 µM
